Laboratory results taken from publication PMC5142613 (The Biochemical journal, 2015).
“Also recorded” adds a separate entry of the source.

What was measured:
ATAD2A bromodomain [1] = target: T1, ATAD2A bromodomain (Homo sapiens, UniProt Q6PL18); test: ATAD2A AlphaScreen assay; type: binding; details: for Displacement of histone peptide by small molecule: titration upon H4K5Ac peptide competition, Supplementary Fig. 3b
T1 sequence (Q6PL18 980-1092 limits assumed): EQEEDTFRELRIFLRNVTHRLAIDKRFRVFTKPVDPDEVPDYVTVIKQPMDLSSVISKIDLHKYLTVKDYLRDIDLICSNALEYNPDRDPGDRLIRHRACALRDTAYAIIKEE

ATAD2A bromodomain [2] = test: DiscoveRx competitive displacement assay; type: binding; details: orthogonal assay; as previously described [22]
ATAD2A bromodomain [3] = target: T1, ATAD2A bromodomain; test: X-ray co-crystallography of ATAD2A complexes; type: binding; details: for Binding site / binding mode in crystal structure: co-crystal structure with ATAD2A bromodomain; for Conformational form of ATAD2A in the complex: co-crystal structure, ZA loop position relative to PDB 3DAI
ATAD2A bromodomain [4] = details: human cells (H3K14ac listed second, "respectively"); ref [7], [30]; cited from earlier work
ATAD2A bromodomain [5] = details: ref [24]; cited from earlier work

CCOC(=O)Nc1cc(-c2ccc(C)c(NS(C)(=O)=O)c2)nn2c(C)nnc12 [Bromosporine, reference compound]
Displacement of histone peptide by small molecule (ATAD2A bromodomain [1]): displaced | Affinity in DiscoveRx competitive displacement assay (ATAD2A bromodomain [2]): high μM

COC(=O)c1cc(NS(=O)(=O)c2ccccc2)cc(-c2c(C)noc2C)c1 [compound 1, Methyl 3-(3,5-dimethylisoxazol-4-yl)-5-(phenylsulfonamido)benzoate]
Displacement of histone peptide by small molecule (ATAD2A bromodomain [1]): displaced | Binding site / binding mode in crystal structure (ATAD2A bromodomain [3]): acetyllysine mimetic binding mode | Conformational form of ATAD2A in the complex (ATAD2A bromodomain [3]): open form | Affinity in DiscoveRx competitive displacement assay (ATAD2A bromodomain [2]): high μM

Cc1noc(C)c1-c1cc(NS(=O)(=O)c2ccccc2)cc(C(=O)O)c1 [compound 2, 3-(3,5-Dimethylisoxazol-4-yl)-5-(phenylsulfonamido)benzoic acid]
Binding measured in vitro, compound 2 versus compound 1 (ATAD2A bromodomain [1]; Fig. 5a, IC50 and Kd (AlphaScreen and DiscoveRx), comparison with compound 1): weaker binding | Displacement of histone peptide by small molecule (ATAD2A bromodomain [1]): displaced | Binding site / binding mode in crystal structure (ATAD2A bromodomain [3]): acetyllysine mimetic binding mode | Conformational form of ATAD2A in the complex (ATAD2A bromodomain [3]): open form | Affinity in DiscoveRx competitive displacement assay (ATAD2A bromodomain [2]): high μM

ARTKQTARKSTGGK(Ac)APRKQLAGGK [H3K14ac, reference compound]
Response of acetylated histone peptide in AlphaScreen panel (ATAD2A bromodomain [1]; direct binding of biotinylated peptide to His-ATAD2A, chemiluminescent readout): did not respond | Binding site / binding mode in crystal structure (ATAD2A bromodomain [3]): interacts along the end of αC helix, far from the acetyllysine binding site; also recorded: binds non-specifically | Histone interaction by co-immunoprecipitation, human cells (ATAD2A bromodomain [4]): histone interactions have been reported | Interaction in panning of histone peptide panels by peptide array (ATAD2A bromodomain [5]): have not been confirmed
